Source: paper PMC10298530, “Synthesis and Anticancer Activity of A-Ring-Modified Derivatives of Dihydrobetulin” (International Journal of Molecular Sciences, 2023)
Several values for one entry are separate records, joined by “and”; a condition that tells them apart may be missing. Equal entries are not always repeated. Where two headings read alike, the source gives them in different places.

Columns and labels:
[1] = tested on: Active Caspase-3 in HBL-100/Dox cells; assay: Flow cytometric analysis of active caspase-3, HBL-100/Dox; format: cell-based, human; details: for gMIF, Active Caspase-3: 24 h
Method: The cells were detached with accutase (HiMedia Laboratories, Maharashtra, India) and then fixed with 70% ice cold ethanol followed by overnight incubation at 4 °C. The cells were washed twice with PBS, permeabilized using 0.1% Triton X-100 in PBS solution, and subsequently stained with 5 μL of the BD Horizon™ BV605 Rabbit Anti-Active Caspase-3 antibody (BD Biosciences, Franklin Lakes, NJ, USA). The cells were then washed, resuspended in PBS, and analyzed using a CytoFlex S flow cytometer (Beckman Coulter, Brea, CA, USA). Cell fluorescence was evaluated on a CytoFlex S flow cytometer (Beckman Coulter, Brea, CA, USA). The results were analyzed using FlowJo software (ver. X 10.0.7r2, FlowJo Software, San Jose, CA, USA) and represented as geometric mean fluorescence intensity (gMFI).

HCT116 = assay: MTT cell viability assay, HCT116; format: cell-based, human; details: for IC50: Homo sapiens, HCT-116
Text: (§1) Blokhin National Medical Research Center of Oncology (the Ministry of Health of the Russian Federation, Moscow).

HBL-100 = assay: MTT cell viability assay, HBL-100; format: cell-based, human; details: for IC50: Homo sapiens
Method: (§2) The cells were cultured in a humidified CO2 incubator (model 460-CE; Thermo Fisher Scientific, Waltham, MA, USA) at +37 °C and 5% CO2.
(§3) The percentage of the viable cells was calculated according to the following equation: cell viability (%) = 100 × (mean absorbance in the treatment group/mean absorbance in the control group). The results were expressed pictorially using Prism 6.0 (GraphPad Software, Boston, MA, USA).

P-gp = biological target: T1, P-gp (Homo sapiens, UniProt P08183); assay: Rhodamine 123 efflux test (P-gp functional activity) in HBL-100/Dox cells; format: cell-based; details: Rh123 efflux, 60 min
T1 construct: endogenous in cells
T1 sequence (P08183 whole entry): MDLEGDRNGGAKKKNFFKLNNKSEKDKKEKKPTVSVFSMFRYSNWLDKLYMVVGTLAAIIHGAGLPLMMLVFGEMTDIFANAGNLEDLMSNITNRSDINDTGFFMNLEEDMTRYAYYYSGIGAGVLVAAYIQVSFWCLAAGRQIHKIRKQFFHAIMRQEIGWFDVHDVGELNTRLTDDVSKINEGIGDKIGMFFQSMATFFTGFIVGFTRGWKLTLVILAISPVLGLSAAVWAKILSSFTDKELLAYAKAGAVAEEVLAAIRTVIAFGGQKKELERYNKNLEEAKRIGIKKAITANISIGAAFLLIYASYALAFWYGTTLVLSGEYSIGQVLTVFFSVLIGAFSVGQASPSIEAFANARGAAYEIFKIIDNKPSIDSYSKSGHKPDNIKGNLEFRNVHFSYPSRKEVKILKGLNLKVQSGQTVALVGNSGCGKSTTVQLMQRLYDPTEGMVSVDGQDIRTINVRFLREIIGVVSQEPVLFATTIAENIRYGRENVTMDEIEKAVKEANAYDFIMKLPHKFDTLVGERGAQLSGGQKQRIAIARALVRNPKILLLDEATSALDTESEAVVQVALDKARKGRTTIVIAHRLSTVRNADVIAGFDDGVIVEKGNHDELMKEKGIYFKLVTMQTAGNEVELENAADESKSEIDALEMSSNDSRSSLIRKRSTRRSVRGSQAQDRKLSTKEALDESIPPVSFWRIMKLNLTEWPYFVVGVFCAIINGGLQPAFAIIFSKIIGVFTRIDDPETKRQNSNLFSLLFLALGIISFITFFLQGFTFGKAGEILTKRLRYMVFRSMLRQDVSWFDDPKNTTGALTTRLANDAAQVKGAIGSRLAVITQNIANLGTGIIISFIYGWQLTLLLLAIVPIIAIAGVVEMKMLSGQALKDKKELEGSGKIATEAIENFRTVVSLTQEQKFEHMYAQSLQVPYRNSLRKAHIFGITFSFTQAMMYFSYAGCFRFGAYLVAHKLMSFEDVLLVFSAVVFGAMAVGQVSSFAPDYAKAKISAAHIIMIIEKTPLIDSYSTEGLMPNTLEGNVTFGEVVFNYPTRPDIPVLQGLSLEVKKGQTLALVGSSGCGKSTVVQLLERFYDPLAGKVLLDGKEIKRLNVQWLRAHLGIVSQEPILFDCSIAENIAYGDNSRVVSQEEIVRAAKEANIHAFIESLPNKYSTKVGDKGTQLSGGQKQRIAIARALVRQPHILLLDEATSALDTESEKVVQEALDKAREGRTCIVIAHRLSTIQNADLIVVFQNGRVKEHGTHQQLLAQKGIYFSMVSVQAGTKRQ
Method: The functional activity of P-gp was evaluated using the previously described method. […] After incubation, the cells were washed twice and divided into several fractions (2.5 × 10^5 cells per point). One fraction was incubated in a pure medium, and the other one was incubated with MK (2.0 μM) added. […] Cell fluorescence was evaluated on CytoFlex S flow cytometer (Beckman Coulter, Brea, CA, USA). The results were analyzed using FlowJo software (ver. X 10.0.7r2, FlowJo Software, San Jose, CA, USA) and were represented as geometric mean fluorescence intensity (gMFI) and MAF coefficient, which were calculated using the following formula: MAF = (Mean (inh.) − Mean (free))/Mean (inh.), where MAF is the MDR activity functional, mean (free) is the mean value of cell fluorescence without inhibitor, and mean (inh.) is the mean value for cell fluorescence with inhibitor.

MCF-7 = assay: MTT cell viability assay, MCF-7; format: cell-based, human; details: for IC50: Homo sapiens, MCF7
Text: as §1

HEpG2 = assay: MTT cell viability assay, HEpG2; format: cell-based, human; details: for IC50: Homo sapiens
Text: as §1

HBL-100/Dox cells [2] = assay: Combined action of compounds, MTT assay on HBL-100/Dox cells; format: cell-based, human
Text: The results were expressed pictorially using Prism 6.0 (GraphPad Software, Boston, MA, USA).

HBL-100/Dox cells [3] = assay: ROS by H2DCFDA fluorescent staining, HBL-100/Dox; format: cell-based, human; details: MK 1.8 μM, 4 h
Method: (§4) The DNA marker, termed Hoechst 33342 Ready Flow Reagent, was used as a stock solution (Invitrogen, ThermoFisher Scientific, USA). The mitochondrial marker, LumiTracker Mito TMRE (tetramethylrhodamine, ethyl ester; Lumiprobe, Moscow, Russia), was dissolved in DMSO as 1.0 mM stock solution. The marker of reactive oxygen species, H2DCFDA (Lumiprobe, Moscow, Russia), was dissolved in DMSO as 100.0 μM stock solution. After incubation, the cells were incubated with FBS-free culture medium containing the dye mixture of Hoechst 33342 (final concentration 1.0 μM) and LumiTracker Mito TMRE (final concentration 1.0 μM), or H2DCFDA dye taken alone (final concentration 1.0 μM), for 30 min at 37 °C in darkness. Fluorescence, at 420 nm (Hoechst 33342), at 510 nm (TMRE), and at 575 nm (H2DCFDA), of the test cultures (including controls) was analyzed immediately using a fluorescence microscope CKX 53 (Olympus, Tokyo, Japan). The TMRE fluorescence intensity was quantified using Fiji (ImageJ).

HEK293 = assay: MTT cell viability assay, HEK293; format: cell-based; details: Homo sapiens
Text: as §1

HBL-100/Dox = assay: MTT cell viability assay, HBL-100/Dox; format: cell-based, human
Method: as §2, §3

A549 = assay: MTT cell viability assay, A549; format: cell-based, human; details: for IC50: Homo sapiens
Text: as §1

HBL-100/Dox cells [4] = assay: Hoechst 33342 / TMRE fluorescent microscopy, HBL-100/Dox; format: cell-based, human
Method: as §4

## COC(=O)[C@]12CC[C@@H](C(C)C)[C@@H]1[C@H]1CC[C@@H]3[C@@](C)(CCC#N)[C@H](C(=O)C(Br)Br)CC[C@@]3(C)[C@]1(C)CC2 [compound 31, 2-Cyano-24,24-dibromo-4-oxo-3,4-seco-3,23-dinorlupan-28-oic acid methyl ester]
[1]; dose 2×IC50
  gMIF, Active Caspase-3: 19252±347
[1]; dose IC50
  gMIF, Active Caspase-3: 13428±202
[1]; after 24 h of MK treatment
  caspase-3 activation in comparison to the HBL-100 cells: doubly pronounced
HCT116; HCT116, MTT, 72 h of treatment, read-out: IC50 Values (Mean ± SD)
  IC50: 3.9 ± 0.1 µM
HCT116; Table S1, HCT116, read-out: IC50 (mean ± SD)
  IC50: 3.86 ± 0.08 µM
HCT116; ratio of IC50 values healthy (HEK293) / HCT116
  Selectivity index (SI): 2.95
HBL-100; HBL-100, MK at IC50 dose, after 72 h exposure
  death of the cells: 50%
HBL-100; HBL-100, MTT, 72 h of treatment, read-out: IC50 Values (Mean ± SD)
  IC50: 1 ± 0.1 µM
HBL-100; Table S1, HBL-100, read-out: IC50 (mean ± SD)
  IC50: 0.99 ± 0.001 µM
HBL-100; ratio of IC50 values healthy (HEK293) / HBL-100
  Selectivity index (SI): 11.50
P-gp
  P-gp inhibitory activity: extremely low P-gp inhibitory activity
P-gp; MK 2 μM, verapamil 30 μM, listed as MK
  MAF (MDR activity functional): 0.22±0.1 and 0.22
MCF-7; MCF-7, MTT, 72 h of treatment, read-out: IC50 Values (Mean ± SD)
  IC50: 7.1 ± 0.7 µM
MCF-7; Table S1, MCF-7, read-out: IC50 (mean ± SD)
  IC50: 7.06 ± 0.72 µM
MCF-7; ratio of IC50 values healthy (HEK293) / MCF-7
  Selectivity index (SI): 1.62
HEpG2; HEpG2, MTT, 72 h of treatment, read-out: IC50 Values (Mean ± SD)
  IC50: 16.6 ± 0.4 µM
HEpG2; Table S1, HEpG2, read-out: IC50 (mean ± SD)
  IC50: 16.6 ± 0.41 µM
HEpG2; ratio of IC50 values healthy (HEK293) / HEpG2
  Selectivity index (SI): 0.69
HBL-100/Dox cells [2]; 72 h, 30 μM verapamil
  number of living cells, compound vs its combination with verapamil: remained unchanged
HBL-100/Dox cells [2]; MK 0.6 μM combined with Dox
  potentiation in the effectiveness of Dox: no potentiation
HBL-100/Dox cells [3]
  ROS generation, H2DCFDA staining: significantly heightened the ROS generation
HEK293; HEK293, MTT, 72 h of treatment, read-out: IC50 Values (Mean ± SD)
  IC50: 11.5 ± 0.6 µM
HEK293; Table S1, HEK293, read-out: IC50 (mean ± SD)
  IC50: 11.5 ± 0.56 µM
HBL-100/Dox; HBL-100/Dox, MK at IC50 dose, after 72 h exposure
  death of the cells: 50%
HBL-100/Dox; Homo sapiens, HBL-100, 72 h, read-out: IC50 Values (Mean ± SD)
  IC50: 1.8 ± 0.1 µM
HBL-100/Dox; ratio of IC50 values healthy (HEK293) / HBL-100/Dox
  Selectivity index (SI): 6.39
A549; A549, MTT, 72 h of treatment, read-out: IC50 Values (Mean ± SD)
  IC50: 7 ± 0.2 µM
A549; Table S1, A549, read-out: IC50 (mean ± SD)
  IC50: 7.01 ± 0.21 µM
A549; ratio of IC50 values healthy (HEK293) / A549
  Selectivity index (SI): 1.64
HBL-100/Dox cells [4]; 16 h, vs untreated control
  mitochondrial membrane potential (MMP), TMRE fluorescence intensity: significant (p < 0.05) reduction in MMP
HBL-100/Dox cells [4]; Hoechst 33342, 16 h, IC50 values (MK 1.8 µM)
  number of cells with nuclear morphology changes: 33.1%
